Data taken from patent publication US20100166659A1, “USE OF CYANINE DYES FOR THE DIAGNOSIS OF PROLIFERATIVE DISEASES” (priority 2005, published 2010).
Read-outs that look alike come from different tables or passages of the source.

What was measured:
[1] = Determination of fluorescence quantum yield of tricarbocyanine dyes; type: physicochemical; settings: 2 μM
Procedure: Compounds 6-4, 5-36, 5-29, 5-41, NIR96009, NIR96005 and ICG (see Table 1) were tested for their fluorescence quantum yields at a concentration of 2 μM in either water or plasma. It is apparent from Table 2 that a substitution in the middle of the tricarbocyanine dye improves fluorescence quantum yield in both media.

[2] = remark *see Ref. (Licha et al. 1996), cited from earlier work
tumors = settings: cited from earlier work

Compound	Fluorescence max. (nm) In plasma [1]	Fluorescence quantum yield (%) In plasma [1]	Fluorescence quantum yield (%) In water [1]	Fluorescence max. (nm) In plasma [2]	Fluorescence quantum yield (%) In plasma [2]	Fluorescence quantum yield (%) In water [2]	other results
CC1(C)C(/C=C/C=C(/C=C/C=C2/N(CCCCS(=O)(=O)O)c3ccc(S(=O)(=O)[O-])cc3C2(C)C)CCS(=O)(=O)O)=[N+](CCCCS(=O)(=O)O)c2ccc(S(=O)(=O)O)cc21 [Compound 5-29]	813 nm	9.8%	8.2%	–	–	–	–
CC(/C=C/C=C1/N(CCS(=O)(=O)O)c2ccc(S(=O)(=O)[O-])cc2C1(C)C)=C\C=C\C1=[N+](CCS(=O)(=O)O)c2ccc(S(=O)(=O)O)cc2C1(C)C [Compound 5-36]	–	–	12%	–	–	–	–
CC1(C)C(/C=C/C2=C(c3ccccc3)C(=C/C=C3/N(CCCCS(=O)(=O)O)c4ccc(S(=O)(=O)[O-])cc4C3(C)C)/CCC2)=[N+](CCCCS(=O)(=O)O)c2ccc(S(=O)(=O)O)cc21 [Compound 5-41]	799 nm	19%	10%	–	–	–	–
CC1(C)C(/C=C/C=C/C=C/C=C2/N(CCCCS(=O)(=O)O)c3ccc4ccccc4c3C2(C)C)=[N+](CCCCS(=O)(=O)[O-])c2ccc3ccccc3c21 [ICG, indocyanine green]	–	–	–	829 nm	3%	1%	Detection limit, tumor size (tumors; prior-art dye): 1 cm
CC1(C)C(/C=C/C=C/C=C/C=C2/N(CCCCS(=O)(=O)O)c3ccc(C(=O)O)cc3C2(C)C)=[N+](CCCCS(=O)(=O)[O-])c2ccc(C(=O)O)cc21 [NIR96005]	–	–	–	795 nm	7.2%	5.6%	–
CC1(C)C(/C=C/C=C/C=C/C=C2/N(CCCCS(=O)(=O)O)c3ccc(C(=O)NC(CC(=O)O)C(=O)O)cc3C2(C)C)=[N+](CCCCS(=O)(=O)[O-])c2ccc(C(=O)NC(CC(=O)O)C(=O)O)cc21 (stereo not drawn) [NIR96009]	–	–	–	786 nm	7.8%	5.8%	–
CC(/C=C/C=C1/N(CCS(=O)(=O)O)c2ccc(S(=O)(=O)[O-])cc2C1(C)C)=C\C=C\C1=[N+](CCS(=O)(=O)O)c2ccc(S(=O)(=O)O)cc2C1(C)C [SF64]	787 nm	17%	11%	–	–	–	–
indocyanine green [ICG]	–	–	–	–	–	–	Size of ductal breast carcinomas that could be detected (tumors; DOT, 0.25 mg/kg body weight): ≥ 1 cm
